Results on one compound are retold here after ChEMBL document CHEMBL5729067, “Phenylacetamides as inhibitors of rock” (2022).

The target of this assay is Rho-associated protein kinase 2 (Homo sapiens, UniProt O75116). Nature of the assay: In Vitro Assay: The effectiveness of compounds of the present invention as ROCK inhibitors can be determined in a 30 μL assay containing 20 mM HEPES, pH 7.5, 20 mM MgCl2, 0.015% Brij-35, 4 mM DTT, 5 μM ATP and 1.5 μM peptide substrate (FITC-AHA-AKRRRLSSLRA-OH) (SEQ ID No. 1). Compounds were dissolved in DMSO so that the final concentration of DMSO was <2%, and the reaction was initiated with Rho kinase variants. After incubation, the reaction was terminated by the addition of EDTA and the phosphorylated and non-phosphorylated peptides separated using a LABCHIP® 3000 Reader (Caliper Life Sciences). […] Compounds were tested in dose-response format, and the inhibition of kinase activity was calculated at each concentration of compound. The inhibition data were fit using a curve-fitting program to determine the IC50; i.e., the concentration of compound required to inhibit 50% of kinase activity.
Sequence of Rho-associated protein kinase 2 (O75116 whole entry, looked up, change not shown): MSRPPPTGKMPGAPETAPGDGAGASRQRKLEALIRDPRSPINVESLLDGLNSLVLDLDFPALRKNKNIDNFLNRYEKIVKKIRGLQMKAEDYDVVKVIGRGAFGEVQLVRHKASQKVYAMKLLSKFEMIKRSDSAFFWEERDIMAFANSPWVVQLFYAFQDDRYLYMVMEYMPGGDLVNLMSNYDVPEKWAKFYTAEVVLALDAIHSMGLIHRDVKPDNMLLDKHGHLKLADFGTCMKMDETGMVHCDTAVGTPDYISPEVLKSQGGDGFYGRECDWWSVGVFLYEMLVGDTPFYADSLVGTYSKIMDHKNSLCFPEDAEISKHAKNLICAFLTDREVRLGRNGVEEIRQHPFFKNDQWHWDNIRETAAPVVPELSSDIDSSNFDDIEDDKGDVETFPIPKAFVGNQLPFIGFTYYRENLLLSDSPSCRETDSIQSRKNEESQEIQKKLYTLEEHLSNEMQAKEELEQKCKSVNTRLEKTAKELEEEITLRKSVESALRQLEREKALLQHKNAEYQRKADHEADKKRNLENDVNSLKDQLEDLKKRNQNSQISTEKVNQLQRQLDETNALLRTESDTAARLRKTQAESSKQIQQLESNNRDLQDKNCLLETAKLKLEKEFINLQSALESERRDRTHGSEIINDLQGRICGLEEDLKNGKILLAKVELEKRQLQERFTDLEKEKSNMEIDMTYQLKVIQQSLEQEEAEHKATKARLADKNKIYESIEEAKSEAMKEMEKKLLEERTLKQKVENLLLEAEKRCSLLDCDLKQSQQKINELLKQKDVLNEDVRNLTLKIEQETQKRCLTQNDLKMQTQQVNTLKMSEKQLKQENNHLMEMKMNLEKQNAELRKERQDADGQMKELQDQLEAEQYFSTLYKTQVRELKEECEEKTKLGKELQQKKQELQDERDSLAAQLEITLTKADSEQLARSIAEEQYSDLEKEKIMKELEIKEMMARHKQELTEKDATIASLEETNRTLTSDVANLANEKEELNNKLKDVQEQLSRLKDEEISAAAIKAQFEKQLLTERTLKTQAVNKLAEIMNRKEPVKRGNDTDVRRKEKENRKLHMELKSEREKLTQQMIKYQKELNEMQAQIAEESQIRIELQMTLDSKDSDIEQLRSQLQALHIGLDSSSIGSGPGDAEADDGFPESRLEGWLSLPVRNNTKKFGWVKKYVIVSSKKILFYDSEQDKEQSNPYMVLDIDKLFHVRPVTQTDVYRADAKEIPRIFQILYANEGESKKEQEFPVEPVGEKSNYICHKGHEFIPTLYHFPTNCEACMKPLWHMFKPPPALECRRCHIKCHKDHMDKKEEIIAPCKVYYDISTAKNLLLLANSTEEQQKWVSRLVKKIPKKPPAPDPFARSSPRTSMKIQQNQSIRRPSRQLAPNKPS

Regarding `Cc1sc(C(=O)Cc2ccc(Oc3ncccc3C(N)=O)cc2)nc1-c1ccccc1`, the concentration for half-maximal inhibition (IC50) was 87 nM.

The IC50 is the concentration that inhibits the measured activity by half.
